Laboratory results from patent US12024500B2, “Five-membered ring-substituted pyridazinol compounds and derivatives, preparation methods, herbicidal compositions and applications thereof” (Qingdao Kingagroot Chemical Compound Co., Ltd., priority 2018, dated 2024).

Experiments:
Experiment in all cases: Post-emergence weed control test (greenhouse pot, spray)
Assay type in all cases: in vivo
[1] = system: Amaranthus retroflexus; conditions: 3000 g/ha, 3 weeks after spraying
From the text: (§1) The activity level standard of harmful plant destruction (i.e. growth inhibition rate) is as follows: • Level 10: completely dead; • Level 9: above 90% growth inhibition rate; • Level 8: above 80% growth inhibition rate; • Level 7: above 70% growth inhibition rate; • Level 6: above 60% growth inhibition rate; • Level 5: above 50% growth inhibition rate; • Level 4: above 40% growth inhibition rate; • Level 3: above 30% growth inhibition rate; • Level 2: above 20% growth inhibition rate; • Level 1: below 20% growth inhibition rate; • Level 0: no effect.
(§2) The above described growth inhibition rates are fresh weight inhibition rates.
(§3) Experiment of post-emergence test: monocotyledonous and dicotyledonous weed seeds as well as main crop seeds (i.e., wheat, corn, rice, soybean, cotton, oilseed rape, millet and sorghum) were put into a plastic pot loaded with soil, then covered with 0.5-2 cm of soil, and the seeds were allowed to grow in good greenhouse environment. The test plants were treated at 4-5 leaf stage 2-3 weeks after sowing. The test compounds of the invention were dissolved in acetone respectively, then added with Tween-80 and diluted by a certain amount of water to give solutions with certain concentrations. The solution was sprayed to the plants with a sprayer. The plants were cultured for 3 weeks in the greenhouse.

[2] = system: Chenopodiaceae; conditions: 3000 g/ha, 3 weeks after spraying
From the text: as §1, §2, §3

[3] = system: Rorippa indica; conditions: 3 weeks after spraying; for weed control effect (activity level, fresh weight growth inhibition rate), Rorippa indica: 3000 g/ha
From the text: as §1, §2, §3

[4] = system: Veronica polita; conditions: 3 weeks after spraying; for weed control effect (activity level, fresh weight growth inhibition rate), Veronica polita: 3000 g/ha
From the text: as §1, §2, §3

SMILES	weed control effect (activity level, fresh weight growth inhibition rate), Amaranthus retroflexus [1]	weed control effect (activity level, fresh weight growth inhibition rate), Chenopodiaceae [2]	weed control effect (activity level, fresh weight growth inhibition rate), Rorippa indica [3]	weed control effect (activity level, fresh weight growth inhibition rate), Veronica polita [4]	weed control effect (activity level), Rorippa indica, comparison experiment ([3]; 300 g/ha)	weed control effect (activity level), Veronica polita, comparison experiment ([4]; 300 g/ha)
Cn1nc(CC(F)(F)F)cc1-c1nnc(Cl)cc1O [Compound 75]	10 (Level 10: completely dead)	10 (Level 10: completely dead)	10 (Level 10: completely dead)	10 (Level 10: completely dead)	–	–
CCc1cnn(C)c1-c1nnc(Cl)cc1O [Compound 81]	10 (Level 10: completely dead)	10 (Level 10: completely dead)	10 (Level 10: completely dead)	10 (Level 10: completely dead)	–	–
N#Cc1ccc(-c2nnc(Cl)cc2O)s1 [Compound 33]	10 (Level 10: completely dead)	10 (Level 10: completely dead)	10 (Level 10: completely dead)	10 (Level 10: completely dead)	10	10
Cn1nc(C(F)F)cc1-c1nnc(Cl)cc1O [Compound 74]	10 (Level 10: completely dead)	10 (Level 10: completely dead)	10 (Level 10: completely dead)	10 (Level 10: completely dead)	–	–
Cn1nc(C2CC2)cc1-c1nnc(Cl)cc1O [Compound 61]	10 (Level 10: completely dead)	10 (Level 10: completely dead)	10 (Level 10: completely dead)	10 (Level 10: completely dead)	–	–
Cc1ccc(-c2nnc(Cl)cc2O)s1 [Compound 27]	10 (Level 10: completely dead)	10 (Level 10: completely dead)	10 (Level 10: completely dead)	10 (Level 10: completely dead)	–	–
Cn1ccnc1-c1nnc(Cl)cc1O [Compound 3]	10 (Level 10: completely dead)	10 (Level 10: completely dead)	10 (Level 10: completely dead)	10 (Level 10: completely dead)	–	–
Cn1nc(C2CC2)cc1-c1nnc(C(F)(F)C(F)(F)F)cc1O [Compound 45]	10 (Level 10: completely dead)	10 (Level 10: completely dead)	10 (Level 10: completely dead)	10 (Level 10: completely dead)	–	–
Cn1cncc1-c1nnc(Cl)cc1O [Compound 4]	10 (Level 10: completely dead)	10 (Level 10: completely dead)	10 (Level 10: completely dead)	10 (Level 10: completely dead)	–	–
Cn1nc(C#N)cc1-c1nnc(Cl)cc1O [Compound 71]	10 (Level 10: completely dead)	10 (Level 10: completely dead)	10 (Level 10: completely dead)	10 (Level 10: completely dead)	–	–
Cn1nc(-c2ccccc2)cc1-c1nnc(Cl)cc1O [Compound 73]	10 (Level 10: completely dead)	10 (Level 10: completely dead)	10 (Level 10: completely dead)	10 (Level 10: completely dead)	–	–
Cn1ncc(F)c1-c1nnc(Cl)cc1O [Compound 76]	10 (Level 10: completely dead)	10 (Level 10: completely dead)	10 (Level 10: completely dead)	10 (Level 10: completely dead)	–	–
Cn1nc(Cl)cc1-c1nnc(Cl)cc1O [Compound 48]	10 (Level 10: completely dead)	10 (Level 10: completely dead)	10 (Level 10: completely dead)	10 (Level 10: completely dead)	–	–
Cn1ncc(Cl)c1-c1nnc(Cl)cc1O [Compound 77]	10 (Level 10: completely dead)	10 (Level 10: completely dead)	10 (Level 10: completely dead)	10 (Level 10: completely dead)	–	–
CC(=O)n1nccc1-c1nnc(Cl)cc1O [Compound 130]	10 (Level 10: completely dead)	10 (Level 10: completely dead)	10 (Level 10: completely dead)	10 (Level 10: completely dead)	–	–
Oc1cc(Cl)nnc1-c1ccnn1Cc1ccccc1 [Compound 54]	10 (Level 10: completely dead)	10 (Level 10: completely dead)	10 (Level 10: completely dead)	10 (Level 10: completely dead)	–	–
Cn1ncc(C2CC2)c1-c1nnc(Cl)cc1O [Compound 82]	10 (Level 10: completely dead)	10 (Level 10: completely dead)	10 (Level 10: completely dead)	10 (Level 10: completely dead)	–	–
Cn1nc(F)cc1-c1nnc(Cl)cc1O [Compound 56]	10 (Level 10: completely dead)	10 (Level 10: completely dead)	10 (Level 10: completely dead)	10 (Level 10: completely dead)	–	–
Cn1ncc(I)c1-c1nnc(Cl)cc1O [Compound 79]	10 (Level 10: completely dead)	10 (Level 10: completely dead)	10 (Level 10: completely dead)	10 (Level 10: completely dead)	–	–
Cn1ncc(Br)c1-c1nnc(Cl)cc1O [Compound 78]	10 (Level 10: completely dead)	10 (Level 10: completely dead)	10 (Level 10: completely dead)	10 (Level 10: completely dead)	–	–
Cn1ncc(C(F)(F)F)c1-c1nnc(Br)cc1O [Compound 95]	10 (Level 10: completely dead)	10 (Level 10: completely dead)	10 (Level 10: completely dead)	10 (Level 10: completely dead)	–	–
CCn1nc(C2CC2)cc1-c1nnc(Cl)cc1O [Compound 44]	10 (Level 10: completely dead)	10 (Level 10: completely dead)	10 (Level 10: completely dead)	10 (Level 10: completely dead)	–	–
